Measurements as given in US10292992B2, “Selective high-affinity polydentate ligands and methods of making such” (LAWRENCE LIVERMORE NATIONAL SECURITY, LLC, priority 2008, dated 2019).
Entries after “also recorded” stand apart in the source; their conditions may differ.

Tests used:
HLA-DR10 = experiment: NMR screening of ligands for binding to HLA-DR10; set-up: species or system human
Description: Determination of ligand binding and orientation can also be determined using a number of different methods. These include, but are not limited to Saturation Transfer Difference nuclear magnetic resonance (Mayer and Meyer (1999) Angew Chem Int Edit, 38:1784-1788) and Transfer NOE (trNOE) nuclear magnetic resonance (NMR) spectroscopy (Henrichsen et al. (1999) Angew Chem Int Edit., 38:98-102; Cosman et al. (2002) Chem Res Toxicol 15: 1218-1228). These methods can be used to screen the ligands in mixtures of several to several hundred per experiment to determine which ligands bind to the target molecule(s) e.g., under biologically relevant conditions and to determine which ligands bind to the same (or different) sites. Diffusion experiments (Lin et al. (1997) J. Organic Chem., 62: 8930-8931) can also be performed with those ligands that have been determined to bind in order to assess the relative binding affinity of each compound.
As a result of the computational docking, 30 compounds from both the Site 1 and Site 2 lists were experimentally screened by NMR.
A number of cell surface protein receptors have been identified that distinguish malignant cancer cells from their normal counterparts. […] This has led to the development of a variety of antibody-based, receptor-specific reagents conjugated to radioisotopes for use in radio-immunotherapy. […]

[1] = tested on: Raji cells expressing HLA-DR10; experiment: Whole cell binding assay with 111In-labeled SHAL; assay type: cell-based, human
Description: Raji human Burkitt's lymphoma B-cells (American Type Culture Collection, Manassas, Va.) were maintained in RPMI-1640 media supplemented with 10% fetal bovine serum, 2mM L-glutamine, 1 mM sodium pyruvate, 1% of a solution of nonessential amino acids (GIBCO #11140-050), and 100 units/ml of Penicillin G, 100 μg/ml Streptomycin, and 0.25 μg/ml of Amphotericin B at 37° C. in a humidified 5% CO2 atmosphere. Jurkat's cells (American Type Culture Collection, Manassas, Va.), an acute leukemia T-cell line, were maintained in the same medium with the addition of 10 mM 4-(2-hydroxyethyl)-1-piperazineethanesulfonic acid (HEPES).
A series of experiments were conducted to quantify the uptake of the ^111In-labeled parent SHAL (DvLPBaPPP)2LLDo and its hexa-arginine analog (DvLPBaPPP)2LArg6AcLLDo by Raji cells, a cell line that has been previously shown to express the HLA-DR10 variant. The assays were conducted using aliquots containing 10^6 cells suspended in 150 μl of PBS with 5% bovine serum albumin (BSA). Aliquots of cells were treated with 0.1, 1, 5, 10 or 25 ng of ^111In-labeled (DvLPBaPPP)2LLDo or (DvLPBaPPP)2LArg6AcLLDo for one hour at both 4° C. and 22° C. The tubes containing the treated cells were centrifuged to separate the cell pellet from the supernatant and the two fractions were counted in a calibrated gamma well counter to determine the amount of bound and free SHAL. Half of the cell pellets were washed twice with PBS and incubated at 22° C. for 15 min before centrifuging them again. The pooled washes and washed cell pellets were subsequently counted in the gamma well counter to assess how much of the bound SHAL could be removed by washing.
In vitro cell binding experiments were conducted using ^111In-labeled parent SHAL and the hexa-arginine SHAL analog to quantify SHAL uptake and to evaluate the effect of adding the hexa-arginine tag. Uptake was assessed using Raji cells, a lymphoma cell line expressing HLA-DR10. Aliquots containing 10^6 cells were incubated with increasing amounts of SHAL containing ^111In labeled SHAL as a tracer, and cell-associated ^111In was measured before and after washing the cell pellets.

HLA-DR10 protein = experiment: Surface plasmon resonance binding of SHALs to isolated HLA-DR10 protein; set-up: species or system human; details: biotinylated versions of the SHALs immobilized on streptavidin chip; HLA-DR10 isolated from Raji cells
Description: In certain embodiments, the binding affinities of the best SHALs can be estimated by mass spectrometry of the SHAL-target complexes, followed by a more accurate surface plasmon resonance (SPR) spectroscopy (Shuck (1997) Annu Rev Biophys Biomol Struct., 26: 541-566; Van Regenmortal (2001) Cell Mol Life Sci., 58: 794-800) measurement of the SHAL-target binding affinity using for example, the IASYS Plus or BiaCore instruments. In order to perform the SPR measurement, biotin can be added to the linker through a third functional group (as described above) and the SHAL can be bound to commercially available streptavidin coated chips. […] Experiments can be performed to test the selectivity of SHAL binding to targets in the presence of molecules related to the targets. Thus, for example, where the SHAL is directed to HLA-DR10, the SHAL can be evaluated for its ability to bind target molecules in the presence of Raji cell surface proteins extracted and separated by affinity chromatography. After treating the gel with the biotinylated SHAL and rinsing out excess unbound SHAL, the location of the bound SHAL can be detected by staining with Rhodamine tagged streptavidin.
Protein binding experiments were conducted using surface plasma resonance on a Biacore 3000 (Biacore, Piscataway, N.J.) at 25° C. A research grade streptavidin immobilized chip (SA chip, Biacore) was preconditioned and normalized according to the manufacturers instructions. Biotin labeled SHALs were dissolved in DMSO and diluted in 1.05×PBS (Biacore) to a final concentration of 1×PBS pH 7.4, 5% DMSO, to match the running buffer. These SHALs were injected over the flow cell to yield a surface density of 500-1000RU (response units). Biotin (50 μM E-Z Link Amine-PEO2-Biotin, Pierce) was injected over all cells for 1 minute at 20 μl/min as a block to reduce non-specific binding. One flow cell was used as a reference cell and a different SHAL was immobilized on each of the three other cells.
Experiments measuring the binding of HLA-DR10 to the SHALs were carried out at a flow rate of 30 μl/minute in PBS pH7.4 running buffer using all 4 flow cells. HLA-DR10 isolated from Raji cells (Rose et al. (1996) Cancer Immunol Immunother 43:26-30) was diluted in running buffer to a final concentration ranging from […] and a series of concentrations were run randomly in triplicate. Protein was injected for 3 minutes, allowed to dissociate for 5 minutes followed by regeneration of the surface using a 1 minute injection of 0.1% sodium dodecylsulfate (SDS) followed by a washing step with a 2 minute injection of running buffer. The data, which were double referenced by subtracting the blank reference surface and an average of 5 blank injections, were processed using the program SCRUBBER (University of Utah).
Using homology modeling, HLA-DR amino acid residues critical for Lym-1 binding were mapped on a 3-D model of the HLA-DR10ß subunit (Balhorn et al, (2007) Clin. Cancer Res., 13(Suppl. 18): S5621-S5628). Cavities within the Lym-1 epitopic surface of the protein were identified using SPHGEN (Kuntz et al. (1982) J. Mol Biol. 161: 269-288; Desjarlais et al. (1988) J. Med. Chem., 31: 722-729). After computational ligand docking for each of the cavities, a combination of NMR spectroscopy, surface plasmon resonance (BIAcore 3000; Biacore, Piscataway, N.J.) and competitive binding experiments were used to confirm ligand binding to HLA-DR10 protein. […]

[2] = tested on: cultured cell lines containing HLA-DR10; details: shown previously (Balhorn et al. 2007); cited from earlier work
Raji cells = experiment: 3-D confocal microscopy, Raji cells; assay type: cell-based, human; details: biotinylated reagent, 1 hr; 10 μM SHAL or 10 nM chLym-1; listed as parent SHAL
Description: SHAL binding and internalization by Raji and Jurkat's cells was assessed using the method described previously by O'Donnell et al. (O'Donnell et al. (1998) Prostate 37:91-97). Experiments were conducted comparing the binding of (DvLPBaPPP)2LLDo (the parent SHAL), its hexa-arginine analog (DvLPBaPPP)2LArg6AcLLDo, and chimeric Lym-1 (chLym-1) to Raji cells. All steps were performed at 20° C., unless indicated.
Four million Raji cells (>92% viability) in log phase growth were pelleted at 300×g, washed, and blocked for 30 min in 1 ml of 1% fraction V BSA in PBS, with constant rotation. Cells were then incubated 1 hr, at 1 million per 250 μl, with either 1% BSA in PBS or a biotinylated primary reagent: 10 nM chLym-1, 10 μM parent SHAL, or 10 μM hexa-arginine SHAL. After four washes (two in 1% BSA in PBS, two in PBS), 50 μl of the cell suspensions was applied to freshly poly-L-Lysine coated slides, and cells were allowed to adhere for 10 min in a humid chamber. Fixation and permeabilization were performed at −20° C. by using a 4 min exposure to methanol. Jurkat's cells were treated in the same manner as a control.
Slides were then washed twice in PBS and blocked in 10% fetaplex serum (Gemini Bioproducts, West Sacramento, Calif.) in PBS for 15 min and washed once in PBS. The detection reagent, Streptavidin AlexaFluor 610 (Invitrogen, Carlsbad, Calif.) was diluted 1/500 in diluent, 100 μl was applied; a parafilm cover slip was layered over the solution to prevent evaporation. The slides were incubated in a humid chamber for 30 min., washed 5 times for 5 min each in PBS, and rinsed briefly in double distilled H2O. After the slides dried, cover slips were mounted with ProlongGold with 4′,6-diamidino-2-phenylindole (DAPI, Invitrogen, Carlsbad, Calif.). The slides were viewed with an Olympus FV1000 laser scanning confocal microscope and data were collected as Z-scans at 160×, with focal sections being taken 1 μm apart through the cell.

binding to HLA-DR10 in subsequent screenings (HLA-DR10)	SMILES	pmoles SHAL Bound/10^6 cells unwashed ([1]; 5.3 pmoles of 111In-labeled SHAL, unwashed cell pellets)	pmoles SHAL Bound/10^6 cells Washed ([1]; 5.3 pmoles of 111In-labeled SHAL, washed two times with BSA/buffer)	proportion of SHAL retained by the cells after washing ([1]; Raji cells, after washing)	Percent SHAL Retained ([1]; after washing two times)	Kd (HLA-DR10 protein)	selective binding to HLA-DR10 expressing cell lines [2]	SHAL binding, uptake and localization in Raji cells (Raji cells)
precipitated onto the target protein	Nc1ccc(Oc2ccc(C(=O)c3ccc(C(=O)c4ccc(Oc5ccc(N)cc5)cc4)cc3)cc2)cc1 [1,4-phenylenebis[[4-(4-aminophenoxy)phenyl]methanone]]	–	–	–	–	–	–	–
–	CC(C)C(NS(=O)(=O)c1ccc(N=Nc2ccc(N(C)C)cc2)cc1)C(=O)NC(CCCCNC(=O)COCCOCCNC(=O)c1ccc(NC(=O)C(CCCNC(=N)N)NC(=O)c2ccccc2)cc1)C(=O)NCCOCCOCC(=O)NCCOCCOCC(=O)NCCOCCOCC(=O)NCCCCC(NC(=O)COCCOCCNC(=O)COCCOCCNC(=O)COCCOCCNC(=O)C(CCCCNC(=O)COCCOCCNC(=O)c1ccc(NC(=O)C(CCCNC(=N)N)NC(=O)c2ccccc2)cc1)NC(=O)C(NS(=O)(=O)c1ccc(N=Nc2ccc(N(C)C)cc2)cc1)C(C)C)C(=O)NC(CCCCNC(=O)CN1CCN(CC(=O)O)CCN(CC(=O)O)CCN(CC(=O)O)CC1)C(=O)O (centres unmarked) [(DvLPBaPPP)2LLDo]	0.568 ± 0.091 pmoles SHAL Bound/10^6 cells	0.263 ± 0.000 pmoles SHAL Bound/10^6 cells	~46%	46%	~21 nM	bind selectively to HLA-DR10 expressing cell lines	intracellular binding; also recorded: Nuclear staining was not observed; also recorded: taken up and internalized
